Data taken from article PMC10272112 (Nature Communications, 2023).

Experiments:
Type in all cases: binding
NCOR2 (Homo sapiens) = test: Chemoproteomic competition pulldown assay (co-competed NCoR partner); settings: iQ, SW620 lysate
Protocol: (§1) To identify proteins directly bound by lipoic acid, we employed a chemoproteomic competition assay. Briefly, (R/S)-LA was immobilized on sepharose beads via an amidation reaction to form an affinity matrix (abbreviated as iL; Fig. 1a). This affinity matrix can be incubated with cell lysate to pull down potential LA or LM target proteins and identify these targets via bottom-up proteomics. In a competition assay, free LA or LM were incubated with lysate at different concentrations before pulling down and quantifying target proteins. […] (Fig. 1b, see “Methods” for details). […] The lysate buffer used in this assay contains 1 mM DTT to mimic the intracellular reductive milieu and to reduce lipoic acid and LM. […] Additional competition assays performed in lung adenocarcinoma cell A549 lysate also identified HDAC1, HDAC2, and HDAC6 as targets (Supplementary Fig. 1b). Amongst the three cell lines tested, HDACs were the only confidently identified targets across the 1500–3000 proteins quantified in these assays. […] We validated the results by analogous pulldown competition assays using two other affinity matrices prepared via the immobilization of either the HDAC inhibitor Quisinostat (iQ) and an analog of the class IIa HDAC inhibitor Bürli’s 31[14] (iC)[12]. We have previously shown that these affinity matrices specifically bind to the active sites of HDACs and have used them for HDACi selectivity profiling. Indeed, binding of (R/S)-LA and (R/S)-LM to HDAC1, HDAC2, HDAC3, HDAC6, and, to a lesser extent, HDAC8 was confirmed in these assays (Supplementary Fig. 1c, d). No binding to class IIa HDACs or the recently discovered common HDAC inhibitor off-target MBLAC2 was observed (Supplementary Fig. 1e)[12]. […] This observation might reflect electrostatic repulsion between the HDAC10 active site gate-keeper glutamic acid residues[15],[16] and the terminal carboxylic acid of LA.
(§2) To assess the degree of protein depletion from lysates by the affinity matrix, a second pulldown (PDPD) with fresh beads was performed using the unbound protein fraction from the vehicle control flow through. The beads were washed (1 × 1 mL of lysis buffer without inhibitors and only 0.4% Igepal, 2 × 2 mL of lysis buffer without inhibitors and only 0.2% Igepal), and captured proteins were denatured with 8 M urea buffer, alkylated with 55 mM chloroacetamide and digested with Trypsin according to standard procedures. The resulting peptides were desalted on a C18 filter plate (Sep-Pak® tC18 µElution Plate, Waters), vacuum dried, and stored at −20 °C until LC–MSMS measurement.
(§3) For the competition assays, relative binding was calculated based on the protein intensity ratio to the DMSO control for every single inhibitor concentration. EC50 values were derived from a four-parameter log-logistic regression with variable slope (constrain: bottom > 0). The obtained EC50 values were multiplied with a protein-dependent correction factor (cf), resulting in the apparent Kd value (Kd^app). The correction factor is determined by calculating the ratio of the protein intensity of two consecutive pulldowns of the vehicle control sample[13]. Targets of the inhibitors were annotated manually according to published procedures[12],[46],[47]. […] Additionally, the number of unique peptides and MSMS counts per condition were taken into account. Positive target binding across several independent experiments performed with different cell lysates further substantiated our confidence for a true positive drug-target binding event.

HDAC4 = target: T1, HDAC4 (Homo sapiens, UniProt P56524); test: Chemoproteomic competition pulldown assay with iC; settings: for relative binding vs DMSO: iC
T1 construct: endogenous in cells; host or cells: cell lysate
Protocol: as §1, §2, §3

NCOR1 (Homo sapiens) = test: Chemoproteomic competition pulldown assay (co-competed NCoR partner); settings: iQ, SW620 lysate
Protocol: as §1, §2, §3

DNTTIP1 = test: Chemoproteomic competition pulldown assay (co-competed MiDAC partner)
Protocol: as §1, §2, §3

ELMSAN1 = test: as above
Protocol: as §1, §2, §3

[1] = iL, MV4-11 lysate, log10 M -3.52288
[2] = iL, MV4-11 lysate, log10 M -4.52288
[3] = iL, MV4-11 lysate, log10 M -5.52288
[4] = iL, MV4-11 lysate, log10 M -6.52288
[5] = iQ, SW620 lysate, log10 M -3.52288
[6] = iQ, SW620 lysate, log10 M -4.52288
[7] = iQ, SW620 lysate, log10 M -5.52288
[8] = iQ, SW620 lysate, log10 M -6.52288

T1 sequence (P56524 whole entry): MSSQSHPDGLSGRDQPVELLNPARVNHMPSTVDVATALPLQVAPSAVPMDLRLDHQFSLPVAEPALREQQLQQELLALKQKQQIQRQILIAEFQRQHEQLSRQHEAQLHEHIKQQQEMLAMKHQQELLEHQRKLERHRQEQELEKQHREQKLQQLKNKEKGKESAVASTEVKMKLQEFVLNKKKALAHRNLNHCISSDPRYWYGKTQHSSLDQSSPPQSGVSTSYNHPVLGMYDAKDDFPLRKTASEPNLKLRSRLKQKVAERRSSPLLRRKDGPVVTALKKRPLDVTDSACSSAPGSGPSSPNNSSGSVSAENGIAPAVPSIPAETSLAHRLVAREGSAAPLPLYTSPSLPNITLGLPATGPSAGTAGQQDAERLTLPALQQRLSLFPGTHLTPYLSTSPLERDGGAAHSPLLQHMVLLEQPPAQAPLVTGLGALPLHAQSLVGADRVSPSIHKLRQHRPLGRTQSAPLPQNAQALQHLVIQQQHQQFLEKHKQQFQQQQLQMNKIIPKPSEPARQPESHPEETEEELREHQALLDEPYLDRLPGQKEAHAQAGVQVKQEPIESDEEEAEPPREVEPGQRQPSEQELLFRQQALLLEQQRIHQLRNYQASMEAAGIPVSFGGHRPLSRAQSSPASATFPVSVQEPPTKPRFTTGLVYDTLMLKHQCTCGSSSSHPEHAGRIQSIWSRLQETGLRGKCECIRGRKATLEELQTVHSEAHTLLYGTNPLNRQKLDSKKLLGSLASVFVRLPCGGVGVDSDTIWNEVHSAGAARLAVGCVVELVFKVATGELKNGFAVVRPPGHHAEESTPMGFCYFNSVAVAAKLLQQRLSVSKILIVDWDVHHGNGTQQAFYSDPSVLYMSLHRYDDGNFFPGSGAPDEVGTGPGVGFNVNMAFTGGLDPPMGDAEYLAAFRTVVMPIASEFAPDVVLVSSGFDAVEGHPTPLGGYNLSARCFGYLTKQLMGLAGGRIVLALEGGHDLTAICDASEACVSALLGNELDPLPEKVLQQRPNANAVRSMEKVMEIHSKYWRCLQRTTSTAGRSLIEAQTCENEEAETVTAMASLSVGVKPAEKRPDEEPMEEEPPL
Chain of NCOR1 (Homo sapiens) (O15379 whole entry): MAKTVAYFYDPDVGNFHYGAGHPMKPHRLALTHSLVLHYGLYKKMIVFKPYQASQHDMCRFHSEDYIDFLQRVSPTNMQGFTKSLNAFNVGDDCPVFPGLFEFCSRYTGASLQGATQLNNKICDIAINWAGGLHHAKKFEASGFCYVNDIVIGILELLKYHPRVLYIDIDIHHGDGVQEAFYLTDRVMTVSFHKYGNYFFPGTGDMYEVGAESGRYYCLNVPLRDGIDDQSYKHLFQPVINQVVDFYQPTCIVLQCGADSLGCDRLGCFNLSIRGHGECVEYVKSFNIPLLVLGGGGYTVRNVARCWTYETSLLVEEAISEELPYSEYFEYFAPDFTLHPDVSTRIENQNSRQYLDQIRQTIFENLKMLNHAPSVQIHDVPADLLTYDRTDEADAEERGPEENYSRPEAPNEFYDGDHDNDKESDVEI
Chain of NCOR1 (Homo sapiens) (O75376 whole entry, further chain): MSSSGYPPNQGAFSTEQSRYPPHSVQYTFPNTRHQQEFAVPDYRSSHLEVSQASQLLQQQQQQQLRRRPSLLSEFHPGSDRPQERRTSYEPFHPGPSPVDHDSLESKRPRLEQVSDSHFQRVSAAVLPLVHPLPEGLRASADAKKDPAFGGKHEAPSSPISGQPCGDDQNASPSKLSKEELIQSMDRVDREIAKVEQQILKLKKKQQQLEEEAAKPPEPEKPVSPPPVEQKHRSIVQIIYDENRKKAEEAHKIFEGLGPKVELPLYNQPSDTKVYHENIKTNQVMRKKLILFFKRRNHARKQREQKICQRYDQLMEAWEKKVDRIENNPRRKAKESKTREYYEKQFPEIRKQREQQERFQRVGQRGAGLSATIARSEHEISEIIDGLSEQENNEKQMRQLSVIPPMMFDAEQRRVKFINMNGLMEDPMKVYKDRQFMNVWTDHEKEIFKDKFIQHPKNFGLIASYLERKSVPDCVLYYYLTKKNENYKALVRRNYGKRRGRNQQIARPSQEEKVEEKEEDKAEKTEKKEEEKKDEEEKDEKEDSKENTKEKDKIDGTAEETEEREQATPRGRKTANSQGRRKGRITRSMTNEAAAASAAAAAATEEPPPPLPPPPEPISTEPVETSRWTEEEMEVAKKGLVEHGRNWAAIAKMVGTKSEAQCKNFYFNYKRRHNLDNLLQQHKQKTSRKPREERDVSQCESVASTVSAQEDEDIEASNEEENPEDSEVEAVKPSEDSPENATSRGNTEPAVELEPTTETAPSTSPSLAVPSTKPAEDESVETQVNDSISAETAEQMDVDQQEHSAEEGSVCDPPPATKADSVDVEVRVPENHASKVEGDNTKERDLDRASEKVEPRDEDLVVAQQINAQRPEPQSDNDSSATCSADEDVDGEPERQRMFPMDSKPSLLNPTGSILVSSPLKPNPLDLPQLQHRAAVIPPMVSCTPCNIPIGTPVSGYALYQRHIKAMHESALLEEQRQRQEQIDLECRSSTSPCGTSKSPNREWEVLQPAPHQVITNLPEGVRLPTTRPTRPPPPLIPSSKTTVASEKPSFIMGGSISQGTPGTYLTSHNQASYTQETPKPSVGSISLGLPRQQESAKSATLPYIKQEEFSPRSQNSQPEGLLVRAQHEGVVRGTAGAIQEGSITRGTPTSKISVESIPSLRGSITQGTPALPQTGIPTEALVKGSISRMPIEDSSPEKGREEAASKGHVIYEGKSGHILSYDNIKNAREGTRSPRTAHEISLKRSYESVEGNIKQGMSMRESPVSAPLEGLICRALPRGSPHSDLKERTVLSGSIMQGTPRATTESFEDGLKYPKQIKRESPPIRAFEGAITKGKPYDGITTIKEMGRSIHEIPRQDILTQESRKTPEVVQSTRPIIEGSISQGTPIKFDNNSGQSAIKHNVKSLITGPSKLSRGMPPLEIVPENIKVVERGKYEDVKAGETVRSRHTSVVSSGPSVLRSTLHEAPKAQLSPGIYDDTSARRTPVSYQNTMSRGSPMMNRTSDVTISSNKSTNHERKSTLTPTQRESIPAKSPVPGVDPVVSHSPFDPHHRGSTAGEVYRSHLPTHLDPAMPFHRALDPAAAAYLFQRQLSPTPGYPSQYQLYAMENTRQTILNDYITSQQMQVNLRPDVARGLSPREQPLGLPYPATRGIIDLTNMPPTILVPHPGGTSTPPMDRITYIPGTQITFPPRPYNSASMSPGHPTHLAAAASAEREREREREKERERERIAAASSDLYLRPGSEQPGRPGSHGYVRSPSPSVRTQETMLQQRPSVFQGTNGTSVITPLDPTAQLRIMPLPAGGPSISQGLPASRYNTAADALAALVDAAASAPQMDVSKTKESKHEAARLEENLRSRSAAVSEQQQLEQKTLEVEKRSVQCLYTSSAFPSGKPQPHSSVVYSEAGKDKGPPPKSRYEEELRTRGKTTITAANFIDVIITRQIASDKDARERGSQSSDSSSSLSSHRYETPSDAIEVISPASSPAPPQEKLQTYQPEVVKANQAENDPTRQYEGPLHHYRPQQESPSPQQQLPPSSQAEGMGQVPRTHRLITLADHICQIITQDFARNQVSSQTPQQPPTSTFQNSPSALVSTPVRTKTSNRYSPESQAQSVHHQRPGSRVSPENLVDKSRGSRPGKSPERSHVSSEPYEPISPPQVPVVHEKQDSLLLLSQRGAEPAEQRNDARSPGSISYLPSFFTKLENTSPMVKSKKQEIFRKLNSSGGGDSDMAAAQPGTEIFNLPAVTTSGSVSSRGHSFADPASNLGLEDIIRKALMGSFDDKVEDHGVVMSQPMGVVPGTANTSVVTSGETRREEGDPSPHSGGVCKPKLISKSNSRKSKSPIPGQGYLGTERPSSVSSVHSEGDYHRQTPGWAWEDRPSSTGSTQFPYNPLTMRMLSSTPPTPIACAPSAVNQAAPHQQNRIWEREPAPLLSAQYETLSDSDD

O=C(O)CCCCC1CCSS1 (racemic) [(R/S)-LA, (R/S)-lipoic acid]
relative binding vs DMSO (NCOR2 (Homo sapiens); log10 M -3.52288): 0 | relative binding vs DMSO (NCOR2 (Homo sapiens); log10 M -4): 0 | relative binding vs DMSO (NCOR2 (Homo sapiens); log10 M -4.52288): 0.568 | relative binding vs DMSO (NCOR2 (Homo sapiens); log10 M -5): 0.5133 | relative binding vs DMSO (NCOR2 (Homo sapiens); log10 M -5.52288): 0.9883 | relative binding vs DMSO (NCOR2 (Homo sapiens); log10 M -6): 0.9231 | relative binding vs DMSO (NCOR2 (Homo sapiens); log10 M -6.52288): 1.028 | relative binding vs DMSO (NCOR2 (Homo sapiens); log10 M -7): 1.032 | binding to class IIa HDACs (HDAC4; affinity matrix iC): No binding | relative binding vs DMSO (HDAC4; log10 M -3.52288): 1.609 | relative binding vs DMSO (HDAC4; log10 M -4): 1.464 | relative binding vs DMSO (HDAC4; log10 M -4.52288): 1.531 | relative binding vs DMSO (HDAC4; log10 M -5): 1.518 | relative binding vs DMSO (HDAC4; log10 M -5.52288): 1.32 | relative binding vs DMSO (HDAC4; log10 M -6): 1.575 | relative binding vs DMSO (HDAC4; log10 M -6.52288): 1.649 | relative binding vs DMSO (HDAC4; log10 M -7): 1.276

NC(=O)CCCCC1CCSS1 (racemic) [(R/S)-LM, (R/S)-lipoamide]
relative binding vs DMSO (NCOR1 (Homo sapiens); log10 M -3.52288): 0.2142 | relative binding vs DMSO (NCOR1 (Homo sapiens); log10 M -4): 0.3668 | relative binding vs DMSO (NCOR1 (Homo sapiens); log10 M -4.52288): 0.5065 | relative binding vs DMSO (NCOR1 (Homo sapiens); log10 M -5): 0.4972 | relative binding vs DMSO (NCOR1 (Homo sapiens); log10 M -5.52288): 0.5554 | relative binding vs DMSO (NCOR1 (Homo sapiens); log10 M -6): 0.6839 | relative binding vs DMSO (NCOR1 (Homo sapiens); log10 M -6.52288): 0.8502 | relative binding vs DMSO (NCOR1 (Homo sapiens); log10 M -7): 0.9007 | relative binding vs DMSO (DNTTIP1; [1]): 0.05556 | relative binding vs DMSO (DNTTIP1; iL, MV4-11 lysate, log10 M -4): 0.04853 | relative binding vs DMSO (DNTTIP1; [2]): 0.1384 | relative binding vs DMSO (DNTTIP1; iL, MV4-11 lysate, log10 M -5): 0.4584 | relative binding vs DMSO (DNTTIP1; [3]): 0.6943 | relative binding vs DMSO (DNTTIP1; iL, MV4-11 lysate, log10 M -6): 0.6679 | relative binding vs DMSO (DNTTIP1; [4]): 0.7085 | relative binding vs DMSO (DNTTIP1; iL, MV4-11 lysate, log10 M -7): 0.9632 | relative binding vs DMSO (DNTTIP1; [5]): 0.382 | relative binding vs DMSO (DNTTIP1; iQ, SW620 lysate, log10 M -4): 0.3895 | relative binding vs DMSO (DNTTIP1; [6]): 0.5292 | relative binding vs DMSO (DNTTIP1; iQ, SW620 lysate, log10 M -5): 0.6889 | relative binding vs DMSO (DNTTIP1; [7]): 0.738 | relative binding vs DMSO (DNTTIP1; iQ, SW620 lysate, log10 M -6): 0.858 | relative binding vs DMSO (DNTTIP1; [8]): 0.8975 | relative binding vs DMSO (DNTTIP1; iQ, SW620 lysate, log10 M -7): 0.8297 | relative binding vs DMSO (ELMSAN1; [1]): 0.05487 | relative binding vs DMSO (ELMSAN1; iL, MV4-11 lysate, log10 M -4): 0.06564 | relative binding vs DMSO (ELMSAN1; [2]): 0.1508 | relative binding vs DMSO (ELMSAN1; iL, MV4-11 lysate, log10 M -5): 0.5058 | relative binding vs DMSO (ELMSAN1; [3]): 0.6836 | relative binding vs DMSO (ELMSAN1; iL, MV4-11 lysate, log10 M -6): 0.7193 | relative binding vs DMSO (ELMSAN1; [4]): 0.7931 | relative binding vs DMSO (ELMSAN1; iL, MV4-11 lysate, log10 M -7): 0.9008 | relative binding vs DMSO (ELMSAN1; [5]): 0 | relative binding vs DMSO (ELMSAN1; iQ, SW620 lysate, log10 M -4): 0 | relative binding vs DMSO (ELMSAN1; [6]): 0.1474 | relative binding vs DMSO (ELMSAN1; iQ, SW620 lysate, log10 M -5): 0.6579 | relative binding vs DMSO (ELMSAN1; [7]): 0.8569 | relative binding vs DMSO (ELMSAN1; iQ, SW620 lysate, log10 M -6): 0.8861 | relative binding vs DMSO (ELMSAN1; [8]): 0.626 | relative binding vs DMSO (ELMSAN1; iQ, SW620 lysate, log10 M -7): 0.8038
